Converted amounts (≈) assume the structure as drawn.
Assays:
Candida albicans [1] = experiment: MIC by microdilution, C. albicans; type: cell-based; details: Candida albicans; microdilution; read-out: MIC (μM) C. albicans
Experimental: The antimicrobial activities of the OSe compounds were evaluated against C. albicans yeast, as well as E. coli and S. bacteria, employing the agar well diffusion assay. Furthermore, the MICs (in µM) were determined by the microdilution method according to the reported protocol. More details are in the Supporting Information. […]
(§1) 1.1.1. The antimicrobial activity
(§2) The antimicrobial activities of the OSe compounds were evaluated against C. albicans yeast as well as E. coli gram-negative and S. aureus gram-positive bacteria employing the agar well diffusion assay. Briefly, a concentration of 1 mM was prepared for each compound by dissolving in DMSO. Paper discs of standard size […] were steri-lized in an autoclave and soaked in 20 µL of the test compounds, and placed in the Petri dishes, which in turn contain a nutrient media (agar 20 g, peptone 5 g, and beef extract 3 g) seeded with the dedicated strain. Incubation lasted for 24 h at 36
(§3) Furthermore, the MICs (in µM) were determined by the microdilution method according to the reported protocol. […]
(§4) Inhibition%= (Ablank-Asample)/(Ablank)*100. (1)

Candida albicans [2] = experiment: microbe, parasite or virus in culture; type: cell-based; parameters: C. albicans A% (activity index): concentration or dose not given beside the values; details: for zone of inhibition at 20 µM: Candida albicans, inhibition zone diameter, six-mm disks soaked with 20 μM of compound, read-out: C. albicans IZD (mm); for C. albicans A% (activity index): zone of test compound / zone of standard (clotrimazole) x 100
Experimental: (§5) The antimicrobial activities of the OSe compounds were evaluated against C. albicans yeast, as well as E. coli and S. bacteria, employing the agar well diffusion assay. Furthermore, the MICs (in µM) were determined by the microdilution method according to the reported protocol. More details are in the Supporting Information.
(§6) Compounds were evaluated for their antimicrobial activity against the Gram-negative bacteria Escherichia coli (E. coli) and the Gram-positive bacteria Staphylococcus aureus (S. aureus), as well as the Candida albicans (C. albicans) fungal strain, using the agar diffusion assay. Ampicillin and clotrimazole were used as standards. Indeed, the antimicrobial properties of the OSe compounds were also obtained from the activity index percentage (A%) according to Equation (2). (2) A%=Zone of inhibition by test compound diametre/Zone of inhibition by standard diametre×100 . […]
as §1
The antimicrobial activities of the OSe compounds were evaluated against C. albicans yeast as well as E. coli gram-negative and S. aureus gram-positive bacteria employing the agar well diffusion assay. […]
compound by dissolving in DMSO. […]
Petri dishes, which in turn contain a nutrient media (agar 20 g, peptone 5 g, and beef extract 3 g) seeded with the dedicated strain. Incubation lasted for 24 h at 36
as §3, §4

HepG2 cells = experiment: cells; type: cell-based, human; details: for IC50: Homo sapiens, MTT, 24 h incubation, HepG2 cells, read-out: HepG2 IC50; for HepG2 TI (IC50 WI-38 / IC50 HepG2): therapeutic index, ratio of WI-38 IC50 to HepG2 IC50
Experimental: (§7) Cells were obtained from the ATCC Company (VACSERA), Cairo, Egypt. MTT assay were performed according to the literature method. More details are in the Supporting Information.
(§8) Recently, OSe compounds gained much attention as possible drug candidates due to their various pharmacological properties. Our group has reported several OSe candidates with potential anticancer, antimicrobial, and antioxidant activities. Therefore, the anticancer attributes of the newly prepared OSe compounds were estimated using the MTT assay against MCF-7 and HepG2 and compared with their respective cytotoxicity in WI-38 primary cells. The anthracycline drug doxorubicin was used as the standard. The minimal inhibition concentration required to kill 50% of the cells (IC50) was calculated from dose-response curves presented in Table 1. Moreover, the therapeutic index (TI) was also calculated (according to Equation (1)), which is considered a measure of the selectivity and safety of the synthesized compounds. (1) TI=IC50 for the normal WI38 cells/IC50 for the cancer cells […]
(§9) 1.1. The biological assays
(§10) 1.1.1. The anticancer activity
The breast adenocarcinoma (MCF-7), Hepatocellular carcinoma (HEPG-2), and nor-mal fibroblast (WI-38) cells were obtained from ATCC via Holding company for biological products and vaccines (VACSERA), Cairo, Egypt. The reagents RPMI-1640 medium, MTT, DMSO, and fetal bovine serum was obtained from Sigma Aldrich. Dulbecco’s modified Eagle’s medium was used as the culture medium for the cells, and the cytotoxicity was evaluated using the reported MTT assay. Doxorubicin was used as the positive reference, and the IC50 values were obtained from the corresponding dose-response curve.
This colorimetric assay is based on converting the yellow tetrazolium bromide (MTT) to a purple formazan derivative by mitochondrial succinate dehydrogenase in viable cells.
(§11) Cell lines were cultured in RPMI-1640 medium with 10% fetal bovine serum. Antibiotics added were 100 units/ml penicillin and 100µg/ml streptomycin at 37 C in a 5% Co2 incu-bator. The cell lines were seeded in a 96-well plate at a density of 1.0x10^4 cells/well. at 37 C for 48 h under 5% Co2. After incubation, the cells were treated with different concentra-tions of compounds and incubated for 24 h. After 24 h of drug treatment, 20 µl of MTT solution at 5mg/ml was added and incubated for 4 h. Finally, dimethyl sulfoxide (DMSO) in the volume of 100 µl is added to each well to dissolve the purple formazan formed. The colorimetric assay is measured and recorded at an absorbance of 570 nm using a plate reader (EXL 800, USA). The percentage of the relative cell viability was calculated as (A570 of treated samples/A570 of the untreated sample) X 100. […]
as §4

Staphylococcus aureus = experiment: Agar diffusion assay, S. aureus; type: cell-based; details: for zone of inhibition at 20 µM: Staphylococcus aureus, inhibition zone diameter, six-mm disks soaked with 20 μM of compound, read-out: S. aureus IZD (mm)
Experimental: as §5, §6, §1, §2, §3, §4

MCF-7 cells = experiment: cells; type: cell-based, human; details: for IC50: Homo sapiens, MCF7, MTT, 24 h incubation, MCF-7 cells, read-out: MCF7 IC50; for MCF7 TI (IC50 WI-38 / IC50 MCF-7): therapeutic index, ratio of WI-38 IC50 to MCF-7 IC50
Experimental: as §7
as §8, with “Our group has reported several OSe candidates with potential anticancer, antimicrobial, and antioxidant activities.” left out, “The minimal inhibition concentration required to kill 50% of the cells (IC50) was calculated from dose-response curves presented in Table 1.” left out
as §9, §10
(§12) The breast adenocarcinoma (MCF-7), Hepatocellular carcinoma (HEPG-2), and nor-mal fibroblast (WI-38) cells were obtained from ATCC via Holding company for biological products and vaccines (VACSERA), Cairo, Egypt.
(§13) DMSO, and fetal bovine serum was obtained from Sigma Aldrich. Dulbecco’s modified Eagle’s medium was used as the culture medium for the cells, and the cytotoxicity was evaluated using the reported MTT assay. Doxorubicin was used as the positive reference, and the IC50 values were obtained from the corresponding dose-response curve.
(§14) This colorimetric assay is based on converting the yellow tetrazolium bromide (MTT) to a purple formazan derivative by mitochondrial succinate dehydrogenase in viable cells. […]
as §11, with “added” for “Cell lines were cultured in RPMI-1640 medium with 10% fetal bovine serum. Antibiotics added”, “plate” for “plate reader (EXL 800, USA). The percentage of the relative cell viability was calculated as (A570 of treated samples/A570 of the untreated sample) X 100.”
(§15) The percentage of the relative cell viability was calculated as (A570 of treated samples/A570 of the untreated sample) X 100. […]

WI-38 cells = experiment: cells; type: cell-based, human; details: Homo sapiens; MTT, 24 h incubation, normal WI-38 cells; read-out: WI38 IC50
Experimental: as §7
as §8, with “Our group has reported several OSe candidates with potential anticancer, antimicrobial, and antioxidant activities.” left out, “The minimal inhibition concentration required to kill 50% of the cells (IC50) was calculated from dose-response curves presented in Table 1.” left out
as §9, §10, §12, §13, §14
as §11, with “added” for “Cell lines were cultured in RPMI-1640 medium with 10% fetal bovine serum. Antibiotics added”, “plate” for “plate reader (EXL 800, USA). The percentage of the relative cell viability was calculated as (A570 of treated samples/A570 of the untreated sample) X 100.”
as §15

Escherichia coli = experiment: Agar diffusion assay, E. coli; type: cell-based; details: for zone of inhibition at 20 µM: Escherichia coli, inhibition zone diameter, six-mm disks soaked with 20 μM of compound, read-out: E. coli IZD (mm); for E. coli A% (activity index): zone of test compound / zone of standard (ampicillin) x 100
[3] = DPPH radical scavenging bioassay; type: biochemical
From the text: (§16) The antioxidant activity was estimated by ABTS and DPPH bioassays, according to the reported literature method. More details are in the Supplementary Materials.
(§17) Recently, OSe compounds were thoroughly used as redox modulators to control many complicated diseases (e.g., cancer and neurodegenerative diseases). The DPPH and ABTS bioassays were extensively used as rapid tools for estimating the antioxidant potency of OSe compounds [50, 51]. Ascorbic acid was used as a standard control, and the antioxidant potency was measured by the ability of the compounds to decolorize the characteristic colors of the ABTS^. and DPPH^. radicals by following the colorimetric decline in absorbance at 734 and 517 nm, respectively (Figure 2).
Figure 2 Evaluation of the antioxidant properties of the OSe compounds employing the ABTS and DPPH assays. All measurements are mean ± SD. In the DPPH assay: absorbance was read after 0.5 h of mixing […] of DPPH with […] of OSe compounds (1 mM, MeOH) at 517 nm. In the ABTS assay: […] of each OSe compound (1 mM, phosphate-buffered methanol) was mixed with the ABTS solution (60 mM), and absorbance was monitored at 734 nm. […]
1.1.1. The antioxidant activity
The hydrogen atom or electron donation ability of the corresponding compounds was measured by estimating the bleaching of the purple color of a methanolic solution of DPPH [29]. This spectrophotometric assay uses stable DPPH. reagent. The sample was prepared by adding […] of the OSe compounds (1 mM in methanol) to […] DPPH in methanol. After 30 min of incubation in the dark, the absorbance was read against a blank at 517 nm. Ascorbic acid (vitamin C) and ebselen were used as standard antioxi-dants (positive control). A blank sample was run without DPPH. A negative control sam-ple was run using methanol instead of the sample. The radical scavenging activity was calculated using the following equation:
as §4

[4] = ABTS radical scavenging bioassay; type: biochemical
From the text: as §16, §17
Figure 2 Evaluation of the antioxidant properties of the OSe compounds employing the ABTS and DPPH assays. All measurements are mean ± SD. In the DPPH assay: absorbance was read after 0.5 h of mixing […] of DPPH with […] of OSe compounds (1 mM, MeOH) at 517 nm. In the ABTS assay: […] of each OSe compound (1 mM, phosphate-buffered methanol) was mixed with the ABTS solution (60 mM), and absorbance was monitored at 734 nm.
The antioxidant activity of the investigated compounds was assessed using 2,2’-az-ino-bis(3-ethylbenzothiazoline-6-sulphonic acid (ABTS) method. The radical cation derived from ABTS was prepared by the reaction of 60 mM ABTS solution with 0.3 M manganese dioxide solution in 0.1M phosphate buffer, pH 7. Then, the mixture was shaken, centrifuged, filtered, and the absorbance (Acontrol) of the resulting green-blue solu-tion (ABTS radical solution) was measured at wavelength 734 nm. Then, […] of 1 mg/ml test compound in phosphate-buffered methanol was added. The absorbance (Atest) was measured. The reduction in color intensity was expressed as % inhibition. The % inhibi-tion for each compound is calculated from the following equation
Inhibition% = (Acontrol-Asample)/(Acontrol)*100
Ascorbic acid (vitamin C) was used as a standard antioxidant (positive control). A blank sample was run without ABTS and using MeOH/phosphate buffer (1:1) instead of the sample. A negative control sample was run with MeOH/phosphate buffer (1:1) instead

[5] = concentration decreasing absorbance by 50%

SMILES | MIC (Candida albicans [1]) [µM] | zone of inhibition at 20 µM (Candida albicans [2]) [mm] | C. albicans A% (activity index) (Candida albicans [2]) [%] | IC50 (HepG2 cells) [µM] | HepG2 TI (IC50 WI-38 / IC50 HepG2) (HepG2 cells) | zone of inhibition at 20 µM (Staphylococcus aureus) [mm] | melting point [°C] | IC50 (MCF-7 cells) [µM] | MCF7 TI (IC50 WI-38 / IC50 MCF-7) (MCF-7 cells) | IC50 (WI-38 cells) [µM] | zone of inhibition at 20 µM (Escherichia coli) [mm] | E. coli A% (activity index) (Escherichia coli) [%] | S. aureus A% (activity index) (Staphylococcus aureus; zone of test compound / zone of standard (ampicillin) x 100) [%] | radical scavenging activity, DPPH assay ([3]; compound 1 mM in MeOH, read after 0.5 h at 517 nm) [%] | IC50 [3, 5] [µM] | radical scavenging activity, ABTS assay ([4]; compound 1 mM in phosphate-buffered methanol, 734 nm) [%] | IC50 [4, 5] [µM]
Clc1ccccc1C(c1ccccc1)(c1ccccc1)n1ccnc1 [Clotrimazole, clotrimazole, reference compound] | 2 (≈ 0.69 µg/mL) | 24 | 100 |  |  |  |  |  |  |  |  |  |  |  |  |  | 
CC(=O)Nc1ccc([Se]CC(=O)Nc2ccccc2)cc1 [Compound 18, 2-((4-acetamidophenyl)selanyl)-N-phenylacetamide] |  | 11 | 46 | 47.6 ± 2.8 | 1.8 | 8 | 161 to 162 | 43.5 ± 2.6 | 2 | 85.1 ± 4.7 | 6 | 26 |  |  |  |  | 
CN(C)C=Nc1ccc([Se]CC(=O)Nc2ccccc2)cc1 [Compound 20, 2-((4-(((dimethylamino)methylene)amino)phenyl)selanyl)-N-phenylacetamide] |  | 11 | 46 | 40.3 ± 2.5 | 2.5 | 9 | 118 to 120 | 36.8 ± 2.4 | 2.7 | > 100 | 8 | 35 | 43 |  |  |  | 
O=C1O[C@H]([C@@H](O)CO)C(O)=C1O [Vitamin C, Ascorbic acid, reference compound] |  |  |  |  |  |  |  |  |  |  |  |  |  | 95 | 19.18 ± 0.13 | 88 | 28.16 ± 0.19
